According to US20150141251A1, “SPONTANEOUS SELF-FORMING MIXED SURFACTANT NANO-EMULSIONS FROM WATER INSOLUBLE PESTICIDES IN MIXED WATER MISCIBLE SOLVENTS” (priority 2012, published 2015):

Test system: Alfalfa weevil
Assay: Alfalfa weevil control on sprayed Alfalfa plots
Format: in vivo
Conditions: Treatment No. 2, 0.022 lb active ingredient per acre
Source text: The relative effect of pesticidal formulation of the present disclosure was studied for controlling Alfalfa weevil on Alfalfa:
To study the effect of formulation of the present disclosure, four 10×20 sq.ft plots of Alfalfa were set up for each treatment and 20 gal/acre test solution was sprayed with hand sprayer. Then 10 stems of Alfalfa per replication were collected randomly after 4 days and 7 days of treatment. The stems so collected were shaken into 1 gal white container. The evaluation results obtained are provided herein Table No. 5.

**Q.** `CC1(C)C(C=C(Cl)Cl)C1C(=O)OC(C#N)c1ccc(F)c(Oc2ccccc2)c1` (stereo not drawn) [Beta- CYFLUTHRIN] was tested. Which “Alfalfa weevil larvae/10 stems (Mean ± SE)” value (4 Days after treatment) did it give?
**A.** 0.3 ± 0.3 larvae/10 stems

**Q.** And the “Alfalfa weevil larvae/10 stems (Mean ± SE)” value (7 Days after treatment)?
**A.** 0.0 ± 0.0 larvae/10 stems
